Experimental findings from US5484776A, “Process for the production of stable liquid form of beta-blocker-containing medicaments with controlled release of the active constituent for oral administration” (Synepos Aktiengesellschaft, priority 1993, dated 1996) are described below.

This series in a line: Drop size / reproducibility of drops of oral solutions with xanthan gum. The class given is physicochemical. As to conditions: metoprolol 200 mg/ml, sotalol 160 mg/ml, atenolol 50 mg/ml, n = 10. The text has this: It was found also in this respect that when the concentration of Xanthan Gum was varied in the solution, the scattering of the exact number of drops was higher at both below and above 0.1% than at about this particular concentration (see Table II.).
Using a standard medicine dropper, 10 drops of the medicinal solutions prepared according to Examples 1-11 contain one usual dose of the beta-blocker in a stable form and ensuring reproducible dosage with the required accuracy, the difference by one drop corresponding to a deviation of less than 10%.
Drop size values of different solutions of β-blockers
and xanthan gum as auxiliary material (n = 10,

On to `CC(C)NCC(O)COc1ccc(CC(N)=O)cc1` (stereo not drawn) [Atenolol, atenolol], for which the “Average Mass of 10 Drops” value is 0.4038 g (0.001% xanthan gum); 0.4094 g (0.01% xanthan gum); 0.4395 g (0.1% xanthan gum); 0.4604 g (0.25% xanthan gum); 0.4456 g (0.5% xanthan gum).
The matching figures for `COCCc1ccc(OCC(O)CNC(C)C)cc1` (stereo not drawn) [Metoprolol, metoprolol]: 0.3490 g, 0.3446 g, 0.3301 g, 0.3497 g and 0.3559 g.
The matching figures for `CC(C)NCC(O)c1ccc(NS(C)(=O)=O)cc1` (stereo not drawn) [Sotalol, sotalol]: 0.3805 g, 0.4067 g, 0.4171 g, 0.4345 g and 0.4052 g.
